The nature of data set [1]: RP, Waters ACQUITY UPLC BEH C18, 100 × 1 mm, 1.7 µm, 50 °C, 0.3 mL/min, estimated dead time 0.17 min; A: water + 10 mM ammonium bicarbonate; B: 10% water + 90% methanol + 10 mM ammonium bicarbonate; gradient (min/%B) 0/0 15/100 21/100 22/0 30/0. The following applies: stereoisomer not certain.
Data set [2] in a line: RP, Waters ACQUITY UPLC BEH C18, 100 × 1 mm, 1.7 µm, 50 °C, 0.3 mL/min, estimated dead time 0.17 min; A: water + 0.1% formic acid + 20 mM ammonium formate; B: methanol + 0.1% formic acid + 20 mM ammonium formate; gradient (min/%B) 0/0 15/100 21/100 22/0 30/0. As to conditions: stereoisomer not certain.

`CCN1CCN(c2cc3c(cc2F)c(=O)c(C(=O)O)cn3C2CC2)CC1` [Enrofloxacin]: the LC retention time was 11.4 min in data set [1] and 8.5 min in data set [2].
The like results for `O=C(Nc1ccc(F)cc1F)c1cccnc1Oc1cccc(C(F)(F)F)c1` [Diflufenican] were, in that order, 16.7 min and 16.3 min.
As to `CCNc1ccc2c(C)cc(=O)oc2c1` [7-(Ethylamino)-4-methylcoumarin], the values for the LC retention time in data set [1] and in data set [2] were 12.5 min and 12.2 min, respectively.
For `CNCCCC(C#N)(c1ccc(OC)c(OC)c1)C(C)C` (configuration not stated) [D617] the same measures were 12.4 min and 10.8 min.
The like results for `CCOC1C(OC)C(C)OC(OC2CC3CCC4C5CC(=O)OC(CC)CCCC(OC6CCC(N(C)C)C(C)O6)C(C)C(=O)C5=CC4C3C2)C1OC` (configuration not stated) [Spinetoram] were, in that order, 19.2 min and 16.2 min.
In the case of `C=C1C(=O)OC2CCN3CC=C(COC(=O)C(C)(O)C(C)C1C)C23` (configuration not stated) [Senecivernine], the LC retention time in data set [1] is 12.7 min; in data set [2], 8.55 min.
Take `CNC(=O)Oc1cccc2c1OC(C)(C)C2` [Carbofuran]: the LC retention time was 12 min in data set [1] and 11.8 min in data set [2].
For `CCC1OC(=O)C(C)C(OC2CC(C)(OC)C(O)C(C)O2)C(C)C(OC2OC(C)CC(N(C)C)C2O)C(C)(OC)CC(C)C(=O)C(C)C(O)C1(C)O` (configuration not stated) [Clarithromycin] the same measures were 16.6 min and 14.1 min.
`COP(=S)(OC)Oc1ccc(Sc2ccc(OP(=S)(OC)OC)cc2)cc1` [Temephos]: the LC retention time in data set [1] was 17.2 min; in data set [2], 16.8 min.
The like results for `COP(=O)(OC)OC(Br)C(Cl)(Cl)Br` (configuration not stated) [Naled] were, in that order, 13.6 min and 13.3 min.
For the molecule `C=C1CC2C(CCC3(C)C(=O)CCC23)C2(C)C=CC(=O)C=C12` (configuration not stated) [Exemestane], the LC retention time is 14.3 min in data set [1] and 14 min in data set [2].
The like results for `C#CC1(O)CCC2C3CCC4=CC(=O)CCC4C3CCC21C` (configuration not stated) [Norethindrone] were, in that order, 14.2 min and 13.9 min.
The like results for `COC(C)C(O)(C(=O)OCC1=CC[N+]2([O-])CCC(O)C12)C(C)C` (configuration not stated) [Heliotrine N-oxide] were, in that order, 8.96 min and 8.36 min.
For `CC(CN(C)C)CN1c2ccccc2CCc2ccccc21` (configuration not stated) [Trimipramine] the same measures were 17.8 min and 12.9 min.
As for `Nc1c(Cl)c(Cl)nc(C(=O)O)c1Cl` [Picloram], the LC retention time was 4.43 min in data set [1] and 7.28 min in data set [2].
On to `CC(C)C1(C)N=C(c2nc3ccccc3cc2C(=O)O)NC1=O` (configuration not stated) [Imazaquin], for which the LC retention time in data set [1] was 9.01 min; in data set [2], 11.8 min.
With `CC12C=CC(=O)C=C1CCC1C2C(=O)CC2(C)C1CCC2(O)C(=O)CO` (configuration not stated) [Prednisone], the LC retention time in data set [1] was 12.2 min; in data set [2], 12 min.
For `CCN(CC)c1nc(C)cc(OP(=S)(OC)OC)n1` [Pirimiphos-methyl] the same measures were 16.3 min and 15.8 min.
Consider `NCC1(CC(=O)O)CCCCC1` [Gabapentin], for which the values for the LC retention time in data set [1] and in data set [2] were 6.17 min and 7.38 min, respectively.
The like results for `CC(=O)N(C)N(C(=O)C(=O)N(C)C)c1ccccc1` [AMDOPH] were, in that order, 9.52 min and 9.42 min.
The like results for `CC(=O)OC(C)(C)C=CC(=O)C(C)(O)C1C(O)CC2(C)C3CC=C4C(C=C(O)C(=O)C4(C)C)C3(C)C(=O)CC12C` (configuration not stated) [Cucurbitacin E] were, in that order, 14.7 min and 14.4 min.
The like results for `CN1CCC(=C2c3ccccc3CC(=O)c3sccc32)CC1` [Ketotifen] were, in that order, 14.7 min and 10.4 min.
On to `O=C1NC2C(=CC(O)C(O)C2O)c2cc3c(c(O)c21)OCO3` (configuration not stated) [Narciclasine], for which the figures for the LC retention time in data set [1] and in data set [2] were 7.93 min and 7.92 min, respectively.
For `Cc1nccc2c1[nH]c1ccccc12` [Harman] the same measures were 13.4 min and 9.01 min.
For `CC1(C)CCC2(C(=O)O)CCC3(C)C(=CCC4C5(C)CCC(O)C(C)(CO)C5CCC43C)C2C1` (configuration not stated) [Hederagenin] the same measures were 15.9 min and 17.2 min.
Take `CN(C)C(=O)NC1CCCCC1` [3-Cyclohexyl-1,1-dimethylurea]: the LC retention time was 11.1 min in data set [1] and 10.9 min in data set [2].
With `COc1ccc(CCN(C)CCCC(C#N)(c2ccc(OC)c(OC)c2)C(C)C)cc1OC` (configuration not stated) [Verapamil], the LC retention time in data set [1] was 15.9 min; in data set [2] it was 12.4 min.
The like results for `COc1ccccc1Oc1c(NS(=O)(=O)c2ccc(C(C)(C)C)cc2)nc(-c2ncccn2)nc1OCCO` [Bosentan] were, in that order, 13.4 min and 14.9 min.
The like results for `CN1C(=O)CN=C(C2=CCCCC2)c2cc(Cl)ccc21` [Tetrazepam] were, in that order, 15.7 min and 15 min.
On to `C=C(C)C1C2OC(=O)C1C1(O)CC3OC34C(=O)OC2C14C` (configuration not stated) [Picrotoxinin], for which the LC retention time is 9.36 min in data set [1] and 9.25 min in data set [2].
For `CN1CCCC(n2nc(Cc3ccc(Cl)cc3)c3ccccc3c2=O)CC1` (configuration not stated) [Azelastine] the same measures were 16.3 min and 12.9 min.
For `CC(=O)OC1CC2(C)C3(CO3)C1OC1C=C(C)C(=O)C(O)C12CO` (configuration not stated) [3-Acetyl-Deoxynivalenol] the same measures were 9.74 min and 9.62 min.
For `CNC(=O)Oc1ccccc1C(C)C` [Isoprocarb] the same measures were 13.1 min and 12.9 min.
Regarding `COc1cc2c(c3oc4cccc(O)c4c(=O)c13)C1C=COC1O2` (configuration not stated) [Sterigmatocystin], the LC retention time in data set [1] is 15 min; in data set [2], 14.6 min.
`Cc1cccc(C)c1NC(=O)C1CCCCN1C` (configuration not stated) [Mepivacaine]: the LC retention time in data set [1] is 13.1 min; in data set [2], 8.36 min.
As for `CCCCNC(=O)OCC#CI` [3-Iodopropynyl butylcarbamate], the LC retention time in data set [1] was 13.2 min; in data set [2], 12.9 min.
As for `CCC1COC(Cn2cncn2)(c2ccc(Cl)cc2Cl)O1` (configuration not stated) [Etaconazole], the results for the LC retention time in data set [1] and in data set [2] were 15.4 min and 15 min, respectively.
`COc1ccc(-c2ccccc2)cc1NNC(=O)OC(C)C` [Bifenazate]: the figures for the LC retention time in data set [1] and in data set [2] were 15 min and 14.7 min, respectively.
The like results for `CC(C)CN(CC(O)C(Cc1ccccc1)NC(=O)OC1COC2OCCC12)S(=O)(=O)c1ccc(N)cc1` (configuration not stated) [Darunavir] were, in that order, 13.4 min and 13.1 min.
For `CC=C1CC2(CO)OC2(C)C(=O)OCC2=CC[N+]3([O-])CCC(OC1=O)C23` (configuration not stated) [Erucifoline N-oxide] the same measures were 6.82 min and 6.51 min.
For `CC(O)C(=O)Nc1c(I)c(C(=O)NC(CO)CO)c(I)c(C(=O)NC(CO)CO)c1I` (configuration not stated) [Iopamidol] the same measures were 3.64 min and 3.66 min.
